From patent publication US20090012103A1, “SUBSTITUTED HETEROCYCLIC COMPOUNDS” (priority 2007, published 2009)

Legend:
[1] = target: wild-type human cardiac sodium channel, hNav1.5 (Homo sapiens, UniProt Q14524); assay: Late INa screening assay (late sodium current, PatchXpress whole cell patch clamp); type: cell-based; conditions: for inhibition at 10 µM: compound at 10 μM, read-out: Late INa % blk; for effect on late sodium current: result in words
hERG potassium channel = hERG potassium channel (Homo sapiens, UniProt Q12809); assay: hERG screening assay (PatchXpress patch clamp, CHO cell line)
Sequence of hERG potassium channel (Q12809 whole entry): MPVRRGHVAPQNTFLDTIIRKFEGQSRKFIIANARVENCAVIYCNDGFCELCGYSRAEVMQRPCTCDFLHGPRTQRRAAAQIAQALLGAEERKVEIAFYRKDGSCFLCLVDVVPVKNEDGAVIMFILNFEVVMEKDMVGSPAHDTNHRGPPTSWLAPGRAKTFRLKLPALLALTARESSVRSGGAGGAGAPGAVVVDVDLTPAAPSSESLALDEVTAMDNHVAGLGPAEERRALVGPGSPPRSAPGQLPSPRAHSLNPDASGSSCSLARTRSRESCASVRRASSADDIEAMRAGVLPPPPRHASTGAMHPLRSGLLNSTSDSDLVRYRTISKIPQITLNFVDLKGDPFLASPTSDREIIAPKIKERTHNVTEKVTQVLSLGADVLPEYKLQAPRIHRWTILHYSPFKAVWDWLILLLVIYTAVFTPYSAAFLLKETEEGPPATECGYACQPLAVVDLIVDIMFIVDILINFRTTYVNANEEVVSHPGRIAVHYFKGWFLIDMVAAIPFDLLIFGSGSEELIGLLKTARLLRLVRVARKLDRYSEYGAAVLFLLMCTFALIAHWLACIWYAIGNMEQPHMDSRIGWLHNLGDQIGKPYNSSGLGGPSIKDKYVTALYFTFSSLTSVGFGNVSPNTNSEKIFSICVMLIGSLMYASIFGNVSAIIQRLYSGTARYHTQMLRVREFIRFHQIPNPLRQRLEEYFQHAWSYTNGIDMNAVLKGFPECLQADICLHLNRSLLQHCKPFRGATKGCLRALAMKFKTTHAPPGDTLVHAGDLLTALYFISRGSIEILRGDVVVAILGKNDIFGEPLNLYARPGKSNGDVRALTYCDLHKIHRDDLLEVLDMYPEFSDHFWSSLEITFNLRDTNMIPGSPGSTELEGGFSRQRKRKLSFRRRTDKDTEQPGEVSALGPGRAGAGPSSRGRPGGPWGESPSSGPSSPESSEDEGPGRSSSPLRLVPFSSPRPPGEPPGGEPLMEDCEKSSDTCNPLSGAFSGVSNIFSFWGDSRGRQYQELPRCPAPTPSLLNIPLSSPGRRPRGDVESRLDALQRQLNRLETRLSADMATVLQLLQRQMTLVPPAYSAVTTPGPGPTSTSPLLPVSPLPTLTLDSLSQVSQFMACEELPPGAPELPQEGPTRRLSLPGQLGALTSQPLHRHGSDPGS
Experimental: Compounds were screened to test their activity in blocking the hERG potassium channel. The hERG channel is heterologously expressed in a CHO (Chinese Hamster Ovary) cell line. Cells are maintained with standard tissue culture procedures and stable channel expression is maintained with 500 μg/ml G418 in the culture medium. Cells are harvested for testing on the PatchXpress automated patch clamp with Accumax (Innovative Cell Technologies, San Diego, Calif.) to isolate single cells.
The following solutions are used for electrophysiological recordings. The external solution contains: 2 mM CaCl2; 2 mM MgCl2; 4 mM KCl; 150 mM NaCl; 10 mM Glucose; 10 mM HEPES (pH 7.4 with 1M NaOH, osmolarity).
hERG channels are activated when the voltage is stepped to +20 mV from the −80 mV holding potential (see FIG. 3). During a 5 second step at +20 mV, the channels activate and then largely inactivate, so the currents are relatively small. Upon returning to −50 mV from +20 mV, hERG currents transiently become much larger as inactivation is rapidly removed and then the channel closes. The first step to −50 mV for 300 ms is used as a baseline for measuring the peak amplitude during the step to −50 mV after channel activation. The peak current at −50 mV is measured both under control conditions and after addition of compound.
All compounds are prepared as 10 mM DMSO stocks in glass vials. Stock solutions are mixed by vigorous vortexing and sonication for about 2 minutes at room temperature. For testing, compounds are diluted in glass vials using an intermediate dilution step in pure DMSO and then further diluted to working concentrations in external solution. Dilutions are prepared no longer than 20 minutes before use.
After achieving the whole-cell configuration, cells are monitored for 90 seconds to assess stability and washed with external solution for 66 seconds. The voltage protocol described above is then applied to the cells every 12 seconds and throughout the whole procedure. Only cells with stable recording parameters and meeting specified health criteria are allowed to enter the compound addition procedure.
External solution containing 0.1% DMSO (vehicle) is applied to the cells first to establish the control peak current amplitude. After allowing the current to stabilize for 3 to 5 minutes, 1 μM and then 10 μM test compounds are applied. Each compound concentration is added 4 times and cells are kept in test solution until the effect of the compound reaches steady state or for a maximum of 12 minutes. […] Washout in the external solution compartment is performed until the recovery of the current reaches steady state. Data are analyzed using DataXpress, Clampfit (Molecular Devices, Inc., Sunnyvale) and Origin 7 (Originlab Corp.)

Sequence of wild-type human cardiac sodium channel, hNav1.5 (Q14524 whole entry): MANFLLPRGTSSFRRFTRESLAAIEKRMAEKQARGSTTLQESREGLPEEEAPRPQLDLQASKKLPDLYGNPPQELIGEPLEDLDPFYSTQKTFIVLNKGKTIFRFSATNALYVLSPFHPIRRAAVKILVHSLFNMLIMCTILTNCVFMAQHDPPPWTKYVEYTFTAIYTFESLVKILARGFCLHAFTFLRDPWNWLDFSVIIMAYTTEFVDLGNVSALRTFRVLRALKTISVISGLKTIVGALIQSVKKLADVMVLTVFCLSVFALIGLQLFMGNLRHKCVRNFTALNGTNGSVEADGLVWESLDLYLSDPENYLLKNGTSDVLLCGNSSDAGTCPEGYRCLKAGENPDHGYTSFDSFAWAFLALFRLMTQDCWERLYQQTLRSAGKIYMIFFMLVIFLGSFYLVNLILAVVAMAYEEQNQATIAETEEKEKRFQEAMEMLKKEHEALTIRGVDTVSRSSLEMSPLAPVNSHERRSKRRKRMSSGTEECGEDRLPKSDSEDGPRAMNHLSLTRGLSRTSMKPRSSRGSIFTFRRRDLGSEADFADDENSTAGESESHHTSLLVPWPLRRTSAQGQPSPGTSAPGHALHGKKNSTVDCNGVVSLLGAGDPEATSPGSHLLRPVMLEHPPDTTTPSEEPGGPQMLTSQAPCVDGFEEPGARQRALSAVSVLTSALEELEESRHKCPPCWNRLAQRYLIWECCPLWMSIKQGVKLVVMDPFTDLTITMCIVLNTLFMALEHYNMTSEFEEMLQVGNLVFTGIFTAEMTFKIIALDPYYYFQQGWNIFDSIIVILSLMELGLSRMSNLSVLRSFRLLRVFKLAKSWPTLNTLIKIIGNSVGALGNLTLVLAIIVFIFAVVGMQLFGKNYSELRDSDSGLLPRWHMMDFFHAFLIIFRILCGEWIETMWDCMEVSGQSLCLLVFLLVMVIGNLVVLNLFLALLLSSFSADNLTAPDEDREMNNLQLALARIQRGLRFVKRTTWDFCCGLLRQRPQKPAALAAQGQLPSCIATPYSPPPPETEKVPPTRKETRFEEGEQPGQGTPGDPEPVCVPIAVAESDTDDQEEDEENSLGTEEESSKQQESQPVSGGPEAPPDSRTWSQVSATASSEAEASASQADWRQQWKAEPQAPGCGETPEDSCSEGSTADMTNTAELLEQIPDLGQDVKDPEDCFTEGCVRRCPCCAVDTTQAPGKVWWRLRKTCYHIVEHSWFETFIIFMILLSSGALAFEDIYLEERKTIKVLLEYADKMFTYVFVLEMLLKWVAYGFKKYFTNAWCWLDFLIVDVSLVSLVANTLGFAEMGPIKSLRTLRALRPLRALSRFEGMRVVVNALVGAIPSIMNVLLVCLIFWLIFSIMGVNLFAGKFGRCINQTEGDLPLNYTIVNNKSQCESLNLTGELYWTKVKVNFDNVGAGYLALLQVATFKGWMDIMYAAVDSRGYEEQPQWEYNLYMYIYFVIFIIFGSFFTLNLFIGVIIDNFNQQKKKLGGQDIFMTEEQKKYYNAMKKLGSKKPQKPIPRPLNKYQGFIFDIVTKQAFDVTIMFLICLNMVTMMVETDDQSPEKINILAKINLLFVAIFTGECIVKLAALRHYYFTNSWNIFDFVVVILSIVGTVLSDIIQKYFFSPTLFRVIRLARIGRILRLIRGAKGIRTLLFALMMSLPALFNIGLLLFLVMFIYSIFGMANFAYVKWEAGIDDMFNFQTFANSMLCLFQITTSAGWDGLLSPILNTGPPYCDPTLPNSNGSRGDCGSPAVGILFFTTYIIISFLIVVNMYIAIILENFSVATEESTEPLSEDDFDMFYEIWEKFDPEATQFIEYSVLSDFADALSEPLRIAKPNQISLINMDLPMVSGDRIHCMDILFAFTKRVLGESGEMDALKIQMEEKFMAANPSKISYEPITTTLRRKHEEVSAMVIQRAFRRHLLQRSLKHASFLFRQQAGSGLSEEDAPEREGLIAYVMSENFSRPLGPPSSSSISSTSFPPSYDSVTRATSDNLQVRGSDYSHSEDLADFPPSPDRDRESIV

SMILES | inhibition at 10 µM [1] [%] | hERG Patch Clamp hERG % blk (hERG potassium channel; 1 μM) [%] | hERG Patch Clamp hERG % blk (hERG potassium channel; 10 μM) [%] | effect on late sodium current [1]
COc1ccc(COC(=O)C2=C(C)Nc3nnnn3C2c2cccc3ccccc23)cc1OC (stereo not drawn) [PT-061, 3,4-dimethoxybenzyl 5-methyl-7-(naphthalen-1-yl)-4,7-dihydrotetrazolo[1,5-a]pyrimidine-6-carboxylate] | 37.3 | 24.0 | 46.5 | 
CC1=C(C(=O)NCc2ccccc2)C(c2ccc3ccccc3c2)n2nnnc2N1 (stereo not drawn) [PT-068, N-benzyl-5-methyl-7-(naphthalen-2-yl)-4,7-dihydrotetrazolo[1,5-a]pyrimidine-6-carboxamide] | 14.3 | 14.0 | 22.5 | 
CCOC(=O)C1=C(C)Nc2[nH]nc(C)c2C1c1cccc2ccccc12 (stereo not drawn) [PT-074, ethyl 3,6-dimethyl-4-(naphthalen-1-yl)-4,7-dihydro-1H-pyrazolo[3,4-b]pyridine-5-carboxylate] | 27.7 | 14.0 | 43.0 | 
COC(=O)c1ccc(-c2n[nH]c3c2C(c2cccc4ccccc24)C2=C(COC2=O)N3)cc1 (stereo not drawn) [PT-085, methyl 4-(4-(naphthalen-1-yl)-5-oxo-4,5,7,8-tetrahydro-1H-furo[3,4-b]pyrazolo[4,3-e]pyridin-3-yl)benzoate] | 9.1 | 34.0 | 44.5 | 
CCOC(=O)C1=C(C)Nc2nccn2C1c1ccc2ccccc2c1 (stereo not drawn) [PT-086, ethyl 7-methyl-5-(naphthalen-2-yl)-5,8-dihydroimidazo[1,2-a]pyrimidine-6-carboxylate] | 38.8 | 13.5 | 57.5 | 
N#CC1=C(N)NC2=C(C(=O)CCC2)C1c1ccc(Br)cc1 (stereo not drawn) [PT-095, 2-amino-4-(4-bromophenyl)-5-oxo-1,4,5,6,7,8-hexahydroquinoline-3-carbonitrile] | 4.9 | 10.0 | 24.5 | 
N#CC1=C(N)OC2=C(C(=O)CC(c3ccccc3)C2)C1c1ccco1 (stereo not drawn) [PT-104, 2-amino-4-(furan-2-yl)-5-oxo-7-phenyl-5,6,7,8-tetrahydro-4H-chromene-3-carbonitrile] | 14.3 | 18.0 | 46.0 | 
CCOC(=O)C1=C(C)NC(C)=C(C(=O)OCC)C1c1cccs1 [PT-111, diethyl 2,6-dimethyl-4-(thiophen-2-yl)-1,4-dihydropyridine-3,5-dicarboxylate] | 69.2 | 11.5 | 48.5 | 
CCOC(=O)C1=C(C)NC(C)=C(C(=O)OCC)C1c1cc2ccccc2o1 [PT-122, diethyl 4-(benzofuran-2-yl)-2,6-dimethyl-1,4-dihydropyridine-3,5-dicarboxylate] | 80.3 | 15.5 | 55.0 | 
CCCC1=C(C(=O)OCC)C(c2ccc(C(=O)O)cc2)C2=C(CC(C)(C)CC2=O)N1 (stereo not drawn) [PT-133, 4-(3-(ethoxycarbonyl)-7,7-dimethyl-5-oxo-2-propyl-1,4,5,6,7,8-hexahydroquinolin-4-yl)benzoic acid] | -27.5 | 10.0 | 12.0 | 
CCOC(=O)C1=C(C)NC2=C(C(=O)CCC2)C1c1cccc2ncccc12 (stereo not drawn) [PT-140, ethyl 2-methyl-5-oxo-1,4,5,6,7,8-hexahydro-4,5′-biquinoline-3-carboxylate] | 6.3 | 13.5 | 34.5 | 
CCCC1=C(C(=O)OCC)C(c2ccsc2)C2=C(CC(c3ccccc3)CC2=O)N1 (stereo not drawn) [PT-149, ethyl 5-oxo-7-phenyl-2-propyl-4-(thiophen-3-yl)-1,4,5,6,7,8-hexahydroquinoline-3-carboxylate] | 71.5 | 24.3 | 67.0 | 
CCCC1=C(C(=O)OCC)C(c2ccsc2)C2=C(CC(c3ccco3)CC2=O)N1 (stereo not drawn) [PT-150, ethyl 7-(furan-2-yl)-5-oxo-2-propyl-4-(thiophen-3-yl)-1,4,5,6,7,8-hexahydroquinoline-3-carboxylate] | 52.9 | 28.2 | 49.3 | 
CC1=C(C(=O)N2CCC(c3ccccc3)CC2)C(c2ccsc2)C2=C(CCCC2=O)N1 (stereo not drawn) [PT-163, 2-methyl-3-(4-phenylpiperidine-1-carbonyl)-4-(thiophen-3-yl)-4,6,7,8-tetrahydroquinolin-5(1H)-one] |  | 15.0 | 53.5 | potentiated late sodium current
CC1=C(C(=O)N2CCN(c3ccccc3)CC2)C(c2ccc3ccccc3c2)C2=C(CCCC2=O)N1 (stereo not drawn) [PT-165, 2-methyl-4-(naphthalen-2-yl)-3-(4-phenylpiperazine-1-carbonyl)-4,6,7,8-tetrahydroquinolin-5(1H)-one] |  | 30.5 | 64.5 | potentiated late sodium current
CC1=C(C(=O)NCc2ccccc2)C(c2ccsc2)C2=C(CCCC2=O)N1 (stereo not drawn) [PT-178, N-benzyl-2-methyl-5-oxo-4-(thiophen-3-yl)-1,4,5,6,7,8-hexahydroquinoline-3-carboxamide] | 0.3 | 11.5 | 30.0 | 
CCOC(=O)C1=C(C(C)C)NC(C(C)C)=C(C(=O)OCC)C1c1ccc(Br)s1 [PT-183, diethyl 4-(5-bromothiophen-2-yl)-2,6-diisopropyl-1,4-dihydropyridine-3,5-dicarboxylate] | 54 | 10.0 | 10.0 | 
CCOC(=O)C1=C(C)NC2=C(C(=O)CCC2)C1c1ccnc2ccccc12 (stereo not drawn) [PT-190, ethyl 2-methyl-5-oxo-1,4,5,6,7,8-hexahydro-4,4′-biquinoline-3-carboxylate] | 4.2 | 10.5 | 32.0 | 
CC1=C(C(=O)OCc2ccccc2)[C@@H](c2ccccc2-c2ccc(Cl)s2)n2nnnc2N1 [PT-237, (R)-benzyl 7-(2-(5-chlorothiophen-2-yl)phenyl)-5-methyl-4,7-dihydrotetrazolo[1,5-a]pyrimidine-6-carboxylate] | 61.5 | 11.5 | 22.5 | 
CC1=C(C(=O)OCc2ccccc2)C(c2ccccc2-c2ccc(C(=O)O)cc2)C2=C(CCCC2=O)N1 (stereo not drawn) [PT-249, 2′-(3-(benzyloxycarbonyl)-2-methyl-5-oxo-1,4,5,6,7,8-hexahydroquinolin-4-yl)biphenyl-4-carboxylic acid] | 20 | 11.5 | 15.5 | 
CC1=C(c2nnc(CCc3ccccc3)o2)C(c2cccc3ccccc23)n2nnnc2N1 (stereo not drawn) [PT-252, 2-(5-methyl-7-(naphthalen-1-yl)-4,7-dihydrotetrazolo[1,5-a]pyrimidin-6-yl)-5-phenethyl-1,3,4-oxadiazole] | 70 | 10.5 | 78.0 | 
CC1=C(C(=O)OCc2ccccc2)C(c2ccccc2-c2ccc(C(=O)O)cc2)n2nnnc2N1 (stereo not drawn) [PT-254, 2′-(6-(benzyloxycarbonyl)-5-methyl-4,7-dihydrotetrazolo[1,5-a]pyrimidin-7-yl)biphenyl-4-carboxylic acid] | 10.7 | 15.0 | 20.0 | 
CC1=C(C(=O)OCc2ccc(Cn3cccn3)cc2)C(c2cccc3ccccc23)n2nnnc2N1 (stereo not drawn) [PT-279, 4-((1H-pyrazol-1-yl)methyl)benzyl 5-methyl-7-(naphthalen-1-yl)-4,7-dihydrotetrazolo[1,5-a]pyrimidine-6-carboxylate] | 61.2 | 12.5 | 45.0 | 
CC1=C(C(=O)OCc2ccc(Cn3cccn3)cc2)C(c2cccs2)n2nnnc2N1 (stereo not drawn) [PT-280, 4-((1H-pyrazol-1-yl)methyl)benzyl 5-methyl-7-(thiophen-2-yl)-4,7-dihydrotetrazolo[1,5-a]pyrimidine-6-carboxylate] | 45.9 | 11.5 | 48.0 | 
COc1cc(Cl)ccc1COC(=O)C1=C(C)NC2=C(C(=O)CCC2)C1c1c(Cl)cccc1Cl (stereo not drawn) [PT-303, 4-chloro-2-methoxybenzyl 4-(2,6-dichlorophenyl)-2-methyl-5-oxo-1,4,5,6,7,8-hexahydroquinoline-3-carboxylate] | 59.9 | 12.0 | 30.5 | 
CC1=C(C(=O)OCc2ccccc2)C(c2ccccc2N2CCCCC2)n2nnnc2N1 (stereo not drawn) [PT-342, benzyl 5-methyl-7-(2-(piperidin-1-yl)phenyl)-4,7-dihydrotetrazolo[1,5-a]pyrimidine-6-carboxylate] | 80.1 | 10.0 | 47.5 | 
CC1=C(C(=O)OCc2ccccc2)C(c2nccs2)n2nccc2N1 (stereo not drawn) [PT-363, benzyl 5-methyl-7-(thiazol-2-yl)-4,7-dihydropyrazolo[1,5-a]pyrimidine-6-carboxylate] | 40.9 | 10.0 | 19.5 | 
CC1=C(C(=O)OCc2ccccc2)C(c2nccs2)n2nnnc2N1 (stereo not drawn) [PT-364, benzyl 5-methyl-7-(thiazol-2-yl)-4,7-dihydrotetrazolo[1,5-a]pyrimidine-6-carboxylate] | 25.8 | 10.0 | 17.5 | 
CC1=C(C(=O)OCc2ccccc2)C(c2ccccc2-c2ccc(NS(C)(=O)=O)cc2)c2cn[nH]c2N1 (stereo not drawn) [PT-366, benzyl 6-methyl-4-(4′-(methylsulfonamido)biphenyl-2-yl)-4,7-dihydro-1H-pyrazolo[3,4-b]pyridine-5-carboxylate] | 87.8 | 28.0 | 92.0 | 
